Experiments:
[1] = tested on: primary cultures of myoblasts; experiment: Transplantation of TnI-βGal myoblasts cultured with phorbol ester (TPA); type: in vivo, mouse; conditions: TPA 100 ng/ml, 2 days culture, n=5 mice
Method: Imm 7 neo: expresses neomycin. Imm 7 Matrilysine: expresses neomycin and matrilysine. Tn I βgal: untreated transgenic mouse myoblasts expressing β-Gal. Tn I βGal+TPA: transgenic mouse myoblasts/β-Gal treated with phorbol ester.
Second experiment: primary cultures of myoblasts were obtained from transgenic mice (TnI-βGal+TPA). Myoblasts were cultured for two (2) days in the presence of phorbol ester (TPA 100 ng/ml) which also stimulates the expression metalloproteases.

mdx mice [2] = experiment: Survival of retrovirally labelled myoblasts 3 days after transplantation in TA muscle; type: in vivo, mouse; conditions: myoblasts grown with bFGF, 4×10^6 cells injected
Method: (§1) The mdx mice were divided in three groups. Six mdx mice of one group were grafted in both tibialis anterior (TA) muscles: myoblasts grown with bFGF were injected in the left TA and myoblasts grown without bFGF were injected in the right TA. Myoblasts grown without bFGF were injected in only the left TA of six other mdx mice. These six mdx mice were then injected intramuscularly four times (after grafting 0, +1, +4 and +6 days) either with 10 μl of bFGF (100 ng/ml, 3 mice) or with 10 μl of HBSS (3 mice). The last five mice were grafted in both TA muscle with normal CD1 mouse myoblasts infected with replication defective retroviral vector LNPOZC7 (gift from Dr C. Cepko, Harvard, Boston, Mass.) which contains the LacZ gene. The left TA muscles were injected with 4 million myoblasts grown with bFGF, while the right TA muscles were injected with 4 million myoblasts grown without bFGF. Three days after grafting, these 5 mice were sacrificed to detect the number of β-galactosidase positive cells which survived in each TA muscle. The numbers of β-galactosidase positive cells were counted in 8 μm sections obtained at every 160 μm throughout the muscle. The total number of cells counted was multiplied by 20 to obtain an estimate of the number of surviving cells and a correction was made to account for the percentage of unlabelled cells in cultures with and without bFGF. […]

mdx mice [3] = experiment: Intramuscular injections of bFGF after myoblast transplantation in mdx mice; type: in vivo, mouse; conditions: intramuscular injections of bFGF vs HBSS control
Method: as §1

[4] = tested on: primary myoblast cultures; experiment: Effects of bFGF on primary myoblast culture (cell count, desmin staining); type: cell-based, mouse
Excerpt: Primary myoblast cultures were established from muscle biopsies of newborn transgenic mice^26. The founder mouse (TnI Lac Z1/29) was provided by Dr. Hasting (McGill University, Montreal, Canada) onto the CD1 background and was reproduced in our laboratory. This transgenic mouse expresses the β-galactosidase gene under the control of the promoter of the quail fast skeletal muscle troponin I gene^16. […] Before starting myoblast cultures, it was necessary to identify transgenic newborns by X-gal staining of a small muscle biopsy because heterozygote transgenic mice were used as parents. Myogenic cells were released from skeletal muscle fragments of the transgenic newborns by serial enzyme treatments. First, a one hour digestion was done with 600 U/ml collagenase (Sigma, St. Louis, Mo., USA). This was followed by a 30 minute incubation in Hanck's balanced salt solution (HBSS) containing 0.1% w/v trypsin (Gibco Lab, Grand Island, N.Y., USA). Satellite cells were placed in 75 cm^2 culture flasks (Coster, Cambridge, Mass., USA) in proliferating medium, i.e. 199 medium (Gibco Lab.) with 15% fetal bovine serum (Gibco Lab.), 1% penicillin (10,000 U/ml) and 1% streptomycin (10,000 U/ml).
One day after starting culture, the culture medium of some flasks was replaced by medium containing 100 ng/ml human recombinant bFGF (Sigma). Three days after starting culture, myoblasts were detached from the flasks with 0.1% trypsin followed by three suspensions in HBSS and centrifugations (6500 RPM, 5 minutes). The final cell pellet was diluted in only 40 μl of HBSS.
The primary cultures were washed with PBS and fixed with 100% methanol at −4° C. They were then washed again 3 times with PBS and incubated 1 hr with a mAb anti-human desmin (Dako, Copenhagen, Denmark) diluted 1/50 with PBS containing 1% blocking serum (i.e. 0.33% rabbit serum, 0.33% horse serum and 0.33 fetal calf serum). They were washed 3 times with PBS with 1% blocking serum and incubated 1 hr with a 1/100 dilution (in PBS with 1% blocking serum) of a rabbit anti-mouse immunoglobulin (Dako).
To try to understand the beneficial effects of bFGF on myoblast transplantation, we examined the effect of a short stimulation (2 days) with 100 ng/ml bFGF on primary myoblast cultures. The total number of cells in each flask was not significant different (31.9±6.8×10^6 with bFGF n=5, 30.0±5.8×10^6 without FGF n=9, unpaired t-test: p=0.573). […] In these cultures, there was no difference in the percentage of myogenic nuclei (nuclei in myoblasts and in myotubes) between the two groups of cultures (Table 3, line 1). More myogenic cells were however fused in the absence of bFGF (Table 3, line 2). There was an higher percentage of the total nuclei (including myoblasts, myotubes and fibroblasts) which were myoblast nuclei in cultures containing bFGF (Table 3, line 3). The increase of myoblasts was more clear when the percentage of myoblasts was calculated among mononuclear cells (excluding the myotubes) (Table 3, lines 4 and 5). This was however only a 35% increase.

myoblasts = experiment: Migration of transplanted myoblasts cultured with concanavalin A, anterior tibialis muscle of mice; type: in vivo, mouse; conditions: CMVLacZ myoblasts cultured 2 days with 20 μg/ml concanavalin A
Method: Myoblasts infected with a retrovirus expressing a beta-galactosidase gene have been cultured for four days in the presence or absence of 20 μg/ml concanavalin A, a lectine which stimulates the expression of metalloproteases. These myoblasts were then injected in one single site of the anterior tibialis muscle of eight mice, in order to verify the degree with which the transplanted cells are capable of migrating through the recipient tissue. After thirty days, mice were sacrificed and the muscle tissue was harvested, frozen and 10 μm thick slices were mounted on slides. […] Therefore, the presence of metalloproteases in the preconditioning medium or during the transplantation is beneficial to the spreading of the transplanted cells from the site of the injection through the recipient muscle tissue.
First experiment: Myoblasts obtained from CMVLacZ mice (expressing a Beta-galactosidase gene) were cultured for two (2) days in the presence of twenty (20) μg/ml concanavalin A, a lectine which stimulates the expression of metalloproteases. When these myoblasts were injected in the anterior tibialis muscle of recipient mice, the migration of transplanted cells was increased by three (3) fold comparatively to myoblasts having not received the concanavalin treatment.

[5] = with bFGF 100 ng/ml, 2 days, mean ± SD

For `CCCCCCCCCCCCCC(=O)O[C@@H]1[C@@H](C)[C@@]2(O)[C@@H](C=C(CO)C[C@]3(O)C(=O)C(C)=C[C@@H]23)[C@@H]2C(C)(C)[C@]12OC(C)=O` [TPA, phorbol ester], the “area of generated fibers vs non-treated preparation” value [1] was “four fold greater” and the “fibers generated vs non-treated preparation” value [1] was “four times more fibers”.

With basic fibroblast growth factor [bFGF] the “number of β-galactosidase positive cells 3 days after transplantation” value (mdx mice [2]; left TA muscles, 5 mice) was 3.29±1.54×10^5 cells, the “% of the injected cells surviving at 3 days” value (mdx mice [2]) was 8.2% and the “difference in the percentage of hybrid or donor muscle fibers vs HBSS injections” value (mdx mice [3]) was “No significant difference”. For the same molecule, the “total number of cells in each flask” value ([4]; 2 days with 100 ng/ml bFGF, n=5) was 31.9±6.8×10^6, the “increase of the percentage of myoblasts among mononuclear cells” value ([4]; 2 days with bFGF vs without) was 35% and the “% myoblast nuclei relative to non myotube nuclei” value [4, 5] was 32.2 ± 4.1%. The “% myoblast nuclei relative to total nuclei” value [4, 5] was 30.9 ± 3.8%, the “% of myoblast and myotube nucleic relative to total nuclei” value [4, 5] was 35.1 ± 4.8% and the “% of myotube nuclei relative to total myotube and myoblast nuclei” value [4, 5] was 11.5 ± 6.6%. For the same molecule, the “% of non-myoblast nuclei relative to non myotube nuclei” value [4, 5] was 67.8 ± 4.1%.

In the case of concanavalin A, the “increase of migration of transplanted cells vs untreated myoblasts” value (myoblasts) is reported as 3 fold.

Source: patent US7189391B2, “Method of in vitro preconditioning healthy donor's myoblasts before transplantation thereof in compatible patients suffering of myopathies like muscular dystrophy, for improving transplantation success” (Université Laval, priority 1996, dated 2007)
